For test [1], the target named is Acetylcholinesterase (Homo sapiens, UniProt P22303). The test can be described thus: In vitro inhibitory concentration against acetylcholinesterase of human erythrocytes.
Test [2] has as its target T1, Acetylcholinesterase (Bos taurus, UniProt P23795).
T1 sequence (P23795 whole entry): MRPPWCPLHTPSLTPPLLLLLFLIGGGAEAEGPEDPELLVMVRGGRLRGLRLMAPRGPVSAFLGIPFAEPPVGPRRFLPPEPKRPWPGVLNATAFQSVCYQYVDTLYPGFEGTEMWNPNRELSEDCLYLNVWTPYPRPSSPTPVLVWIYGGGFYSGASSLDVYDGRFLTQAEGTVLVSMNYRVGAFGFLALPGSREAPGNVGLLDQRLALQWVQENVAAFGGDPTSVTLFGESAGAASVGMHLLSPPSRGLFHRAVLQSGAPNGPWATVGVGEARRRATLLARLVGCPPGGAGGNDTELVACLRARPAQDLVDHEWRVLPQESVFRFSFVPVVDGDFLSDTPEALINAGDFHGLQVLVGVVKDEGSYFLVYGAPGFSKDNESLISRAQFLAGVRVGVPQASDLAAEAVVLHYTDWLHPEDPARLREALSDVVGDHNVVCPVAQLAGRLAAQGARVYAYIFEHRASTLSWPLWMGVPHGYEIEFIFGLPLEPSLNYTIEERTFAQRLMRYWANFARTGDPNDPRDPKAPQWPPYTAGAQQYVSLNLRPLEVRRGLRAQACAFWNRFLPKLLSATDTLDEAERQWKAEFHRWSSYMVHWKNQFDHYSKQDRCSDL
Description: In vitro inhibitory concentration against bovine acetylcholinesterase enzyme

For test [3], the target named is Cholinesterase (Homo sapiens, UniProt P06276).
Description: In vitro inhibitory concentration against BChE of human serum

Each structure is given as a SMILES string.

Chain of Acetylcholinesterase (Homo sapiens, UniProt P22303) (P22303 whole entry): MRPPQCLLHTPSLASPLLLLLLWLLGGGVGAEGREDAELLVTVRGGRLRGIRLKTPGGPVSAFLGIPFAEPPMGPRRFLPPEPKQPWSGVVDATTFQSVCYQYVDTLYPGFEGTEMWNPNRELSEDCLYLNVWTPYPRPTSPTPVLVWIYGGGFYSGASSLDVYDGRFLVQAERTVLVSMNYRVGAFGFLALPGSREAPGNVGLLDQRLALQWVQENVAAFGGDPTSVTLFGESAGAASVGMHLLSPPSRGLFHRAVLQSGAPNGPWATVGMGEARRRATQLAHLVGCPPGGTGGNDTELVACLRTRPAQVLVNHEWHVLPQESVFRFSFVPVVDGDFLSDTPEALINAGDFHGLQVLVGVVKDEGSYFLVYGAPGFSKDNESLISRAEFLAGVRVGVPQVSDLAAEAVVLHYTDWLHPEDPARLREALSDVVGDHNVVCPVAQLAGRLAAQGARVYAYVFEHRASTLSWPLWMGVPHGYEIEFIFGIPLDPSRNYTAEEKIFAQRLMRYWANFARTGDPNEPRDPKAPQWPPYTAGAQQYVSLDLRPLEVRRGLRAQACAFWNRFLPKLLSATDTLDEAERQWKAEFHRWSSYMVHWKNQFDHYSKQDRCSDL
Chain of Cholinesterase (P06276 whole entry): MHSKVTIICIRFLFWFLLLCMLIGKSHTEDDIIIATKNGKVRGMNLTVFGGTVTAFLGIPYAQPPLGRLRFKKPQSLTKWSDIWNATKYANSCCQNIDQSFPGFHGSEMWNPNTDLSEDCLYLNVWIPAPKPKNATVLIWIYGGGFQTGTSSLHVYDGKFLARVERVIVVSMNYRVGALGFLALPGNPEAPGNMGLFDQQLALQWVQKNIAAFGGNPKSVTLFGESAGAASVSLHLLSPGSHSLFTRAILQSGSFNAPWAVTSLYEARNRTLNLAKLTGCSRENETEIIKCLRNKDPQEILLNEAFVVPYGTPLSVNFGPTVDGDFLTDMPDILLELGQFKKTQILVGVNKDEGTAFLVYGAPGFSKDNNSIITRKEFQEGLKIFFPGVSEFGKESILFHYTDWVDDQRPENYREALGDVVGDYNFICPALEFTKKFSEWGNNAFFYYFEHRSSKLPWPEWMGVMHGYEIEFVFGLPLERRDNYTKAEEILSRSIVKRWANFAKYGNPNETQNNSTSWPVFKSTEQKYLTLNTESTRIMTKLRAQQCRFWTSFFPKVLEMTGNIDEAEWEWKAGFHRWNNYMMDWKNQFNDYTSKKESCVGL

The term IC50 denotes the concentration that gives 50% inhibition. A higher IC50 goes with a need for much substance. Take `CC1=CC2Cc3nc4ccccc4c(N)c3C(C1)C2` (racemic): in test [1], the midpoint of inhibition, the IC50, lay at 51.6 nM.

In turn, `CCC1=CC2Cc3nc4ccccc4c(N)c3C(C1)C2` (racemic) returned an IC50 in test [1] of 37.8 nM.

Take `CCC1=CC2CC(C1)Cc1nc3ccccc3c(N)c12` (racemic): the values for the IC50 in test [1], in test [2] and in test [3] were 76.9 nM, 165 nM and 63 nM, respectively.

On to `CC1=CC2CC(C1)Cc1nc3ccccc3c(N)c12` (racemic), for which the IC50 in test [1] stood at 436 nM; in test [3] it was 148 nM.

The values are drawn from ChEMBL document CHEMBL1134330, “Synthesis, in vitro pharmacology, and molecular modeling of syn-huprines as acetylcholinesterase inhibitors” (J Med Chem, 2001).
